# Test results from PubChem BioAssay AID1963831 (Molecular Pharmacology Branch, DTP, NCI, 2024).
# Test system: 889142-216-R-J1-PDC complex spheroid viability
# Experiment: Anticancer human tumor 889142-216-R-J1-PDC patient-derived bladder carcinoma cell line growth inhibition [POLQ]
# Conditions: for IC50: curve of first compound; for viability, T/C: stronger effect = lower value
# Description: Multicellular complex tumor spheroid response to Polymerase (POL) inhibitors (novobiocin, ART-558, RP6685) in combination with a variety of drugs and investigational agents in selected tumor cell lines
# The POL inhibitors (novobiocin, ART-558, and RP6685) were evaluated both individually and in combination with standard of care and investigational anticancer small molecules within a complex spheroid model of solid tumors. . Complex spheroids include a stromal component modeled by human endothelial cells (HUVEC) and fibroblasts modeled by human mesenchymal stem cells (MSCs). The concentration ranges selected for each drug and investigational agent were based upon clinically achievable concentrations if the clinical Cmax of the agent was known.
# Compounds. The drugs and investigational agents: novobiocin (NSC847541), ART-558 (NSC835418), RP-6685 (NSC848927), peposertib (NSC802822), ceralasertib (NSC780249), elimusertib (NSC800525), camonsertib (NSC841442), AZD-1390 (NSC803789), olaparib (NSC753686), talazoparib (NSC767125), rucaparib (NSC756644), sotorasib (NSC818433), MRTX-1133 (NSC836407), SN-38 (NSC673596), topotecan (NSC609699), epotoside (NSC141540), doxorubicin (NSC123127), gemcitabine (NSC613327), 5-fluorouracil (NSC19893), paclitaxel (NSC125973), vemurafenib (NSC761431), MSA-2 (NSC828583), SN-011 (NSC837082), adavosertib (NSC754352), prexasertib (NSC758257), carboplatin (NSC241240) and oxaliplatin (NSC266046), were obtained from the National Cancer Institute (NCI) Developmental Therapeutics Program Chemical Repository (21). The FDA-approved anticancer drug set is available from the Developmental Therapeutics Program at https://dtp.cancer.gov/organization/dscb/obtaining/. […] The stock solutions were prepared in dimethyl sulfoxide (DMSO, Sigma-Aldrich, St. Louis, MO, cat. D2650), except for the platinum compounds which were prepared in saline (Quality Biological, Gaithersburg, MD, cat. 114-055-101), at 800-fold the tested concentration and stored at -70 degrees C prior to their use. All drugs and investigational agents were tested over a range starting from a high concentration at or near the clinical Cmax and decreasing in half-log increments. If the clinical Cmax for an agent had not been determined, the highest concentration tested was 10 microM, except for SN-38, which was tested at a high concentration of 1 microM.
# Cell Culture. All cells were maintained in an incubator at 37 degrees C and 5% CO2 with 95% humidity. The PDC lines were cultured according to standard operating procedures established by the NCI PDMR (https://pdmr.cancer.gov). Table 3 of the manuscript, lists the cell lines along with the number of the three cell types plated to form the mct-spheroids and media for tumor cell growth. After thawing, all PDC lines, except 997537-175-T-J1-PDC and 415267-285-R-J2-PDC, were cultured in Matrigel-coated flasks prepared with a working solution of 1X Ham's F-12 nutrient mix, without supplementation (Thermo Fisher Scientific, cat. 11765054), 100 U/mL penicillin-streptomycin (Thermo Fisher Scientific, cat. 15140122), and 2.5% Matrigel (Corning Inc., Corning, NY, cat. 354248) for the first three passages. The two PDC lines 997537-175-T-J1-PDC and 415267-285-R-J2-PDC were cultured on uncoated flasks. The 857933-349-R-J2-PDC line was cultured in 6C/Colon 1B media containing advanced DMEM/F-12 (Thermo Fisher Scientific, cat. 12634028), 10 mM HEPES (Thermo Fisher Scientific, cat. 15630080), 1X GlutaMAX supplement (Thermo Fisher Scientific, cat. 35050061), 0.1 mg/mL primocin (InvivoGen, San Diego, CA, cat. ant-pm-2), 10% defined fetal bovine serum, heat inactivated (HyClone Laboratories Inc., Logan, UT, cat. SH30070.03HI), 50% L-WRN conditioned media (ATCC, cat. CRL-3276), 1.25 mM N-Acetyl-L-cysteine (Sigma-Aldrich, cat. A9165), 10 mM nicotinamide (Sigma-Aldrich, cat. N0636), 1X B-27 supplement (Thermo Fisher Scientific, cat. 17504044), 1X N-2 supplement (Thermo Fisher Scientific, cat. […]
# 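Also: spheroids exposed to compounds for seven days.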
# 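For viability, T/C in this document: 100% = DMSO vehicle control viability.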
compound,measurement,setting,value
CC(=O)O[C@H]1C(=O)[C@@]2(C)[C@H]([C@H](OC(=O)c3ccccc3)[C@]3(O)C[C@H](OC(=O)[C@H](O)[C@@H](NC(=O)c4ccccc4)c4ccccc4)C(C)=C1C3(C)C)[C@]1(OC(C)=O)CO[C@@H]1C[C@@H]2O + COC1C(OC(N)=O)C(O)C(Oc2ccc3c(O)c(NC(=O)c4ccc(O)c(CC=C(C)C)c4)c(=O)oc3c2C)OC1(C)C,IC50,second compound 0.0316 µM,< 9.49 nM
same,IC50,second compound 0.1 µM,< 9.49 nM
same,IC50,second compound 0.316 µM,< 9.49 nM
same,IC50,second compound 1 µM,< 9.49 nM
same,IC50,second compound 3.16 µM,< 9.49 nM
same,IC50,second compound 10 µM,< 9.49 nM
same,"viability, T/C","second compound 0.0316 µM, first compound 0.00949 µM",42%
same,"viability, T/C","second compound 0.0316 µM, first compound 0.03 µM",37.3%
same,"viability, T/C","second compound 0.0316 µM, first compound 0.0949 µM",36.2%
same,"viability, T/C","second compound 0.0316 µM, first compound 0.3 µM",35%
same,"viability, T/C","second compound 0.0316 µM, first compound 0.949 µM",40.6%
same,"viability, T/C","second compound 0.0316 µM, first compound 3 µM",43%
same,"viability, T/C","second compound 0.1 µM, first compound 0.00949 µM",40%
same,"viability, T/C","second compound 0.1 µM, first compound 0.03 µM",29.9%
same,"viability, T/C","second compound 0.1 µM, first compound 0.0949 µM",40.6%
same,"viability, T/C","second compound 0.1 µM, first compound 0.3 µM",34.2%
same,"viability, T/C","second compound 0.1 µM, first compound 0.949 µM",37.4%
same,"viability, T/C","second compound 0.1 µM, first compound 3 µM",38.5%
same,"viability, T/C","second compound 0.316 µM, first compound 0.00949 µM",38.3%
same,"viability, T/C","second compound 0.316 µM, first compound 0.03 µM",37.2%
same,"viability, T/C","second compound 0.316 µM, first compound 0.0949 µM",41.3%
same,"viability, T/C","second compound 0.316 µM, first compound 0.3 µM",32.9%
same,"viability, T/C","second compound 0.316 µM, first compound 0.949 µM",34%
same,"viability, T/C","second compound 0.316 µM, first compound 3 µM",37.4%
same,"viability, T/C","second compound 1 µM, first compound 0.00949 µM",39.9%
same,"viability, T/C","second compound 1 µM, first compound 0.03 µM",40%
same,"viability, T/C","second compound 1 µM, first compound 0.0949 µM",43.9%
same,"viability, T/C","second compound 1 µM, first compound 0.3 µM",37.5%
same,"viability, T/C","second compound 1 µM, first compound 0.949 µM",35.3%
same,"viability, T/C","second compound 1 µM, first compound 3 µM",39.7%
same,"viability, T/C","second compound 3.16 µM, first compound 0.00949 µM",39.1%
same,"viability, T/C","second compound 3.16 µM, first compound 0.03 µM",38.1%
same,"viability, T/C","second compound 3.16 µM, first compound 0.0949 µM",39%
same,"viability, T/C","second compound 3.16 µM, first compound 0.3 µM",39.7%
same,"viability, T/C","second compound 3.16 µM, first compound 0.949 µM",41.2%
same,"viability, T/C","second compound 3.16 µM, first compound 3 µM",40.4%
same,"viability, T/C","second compound 10 µM, first compound 0.00949 µM",41.1%
same,"viability, T/C","second compound 10 µM, first compound 0.03 µM",38.1%
same,"viability, T/C","second compound 10 µM, first compound 0.0949 µM",40.4%
same,"viability, T/C","second compound 10 µM, first compound 0.3 µM",45.2%
same,"viability, T/C","second compound 10 µM, first compound 0.949 µM",38.5%
same,"viability, T/C","second compound 10 µM, first compound 3 µM",39.5%
